In article PMC8397948, “Effect of Selected Antidepressants on Placental Homeostasis of Serotonin: Maternal and Fetal Perspectives” (Pharmaceutics, 2021):
Counter-ions that a name gives are not always drawn.

Legend:
OCT3 [1] = target: T1, OCT3 (Rattus norvegicus, UniProt O88446); assay: In situ open-circuit perfusion of rat term placenta: 5-HT extraction from fetal circulation; type: in vivo
T1 sequence (O88446 1-551): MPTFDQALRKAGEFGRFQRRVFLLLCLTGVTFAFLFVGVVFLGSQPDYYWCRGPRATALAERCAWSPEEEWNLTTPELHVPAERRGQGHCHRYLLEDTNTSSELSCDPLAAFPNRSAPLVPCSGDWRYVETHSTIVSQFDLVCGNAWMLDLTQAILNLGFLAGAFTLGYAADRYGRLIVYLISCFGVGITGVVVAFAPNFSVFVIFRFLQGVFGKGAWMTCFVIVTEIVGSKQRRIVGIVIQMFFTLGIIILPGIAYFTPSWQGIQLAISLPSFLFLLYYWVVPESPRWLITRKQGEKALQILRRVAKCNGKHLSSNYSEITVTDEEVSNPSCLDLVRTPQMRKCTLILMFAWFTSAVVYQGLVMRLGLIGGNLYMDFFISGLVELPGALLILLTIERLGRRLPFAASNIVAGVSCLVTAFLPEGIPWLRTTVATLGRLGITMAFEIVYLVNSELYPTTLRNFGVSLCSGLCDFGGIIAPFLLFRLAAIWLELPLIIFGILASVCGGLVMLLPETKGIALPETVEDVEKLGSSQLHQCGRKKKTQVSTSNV

[2] = pregnant women or women; read-out: Cmax (maximum steady-state plasma concentration); cited from earlier work
OCT3 [3] = target: T2, OCT3 (Homo sapiens, UniProt O75751); assay: [3H]5-HT uptake by basal membrane (BM) vesicles from human term placenta; type: biochemical; details: 100 nM [3H]5-HT, 10 min preincubation, room temperature, n ≥ 4, read-out: IC50 BM (OCT3-mediated 5-HT uptake)
T2 construct: MVM and BM vesicles were used to evaluate the effects of antidepressants on SERT- and OCT3-mediated uptake of 5-HT, respectively; from tissue; host or cells: human term placenta, basal membrane (BM) vesicles
T2 sequence (O75751 1-556): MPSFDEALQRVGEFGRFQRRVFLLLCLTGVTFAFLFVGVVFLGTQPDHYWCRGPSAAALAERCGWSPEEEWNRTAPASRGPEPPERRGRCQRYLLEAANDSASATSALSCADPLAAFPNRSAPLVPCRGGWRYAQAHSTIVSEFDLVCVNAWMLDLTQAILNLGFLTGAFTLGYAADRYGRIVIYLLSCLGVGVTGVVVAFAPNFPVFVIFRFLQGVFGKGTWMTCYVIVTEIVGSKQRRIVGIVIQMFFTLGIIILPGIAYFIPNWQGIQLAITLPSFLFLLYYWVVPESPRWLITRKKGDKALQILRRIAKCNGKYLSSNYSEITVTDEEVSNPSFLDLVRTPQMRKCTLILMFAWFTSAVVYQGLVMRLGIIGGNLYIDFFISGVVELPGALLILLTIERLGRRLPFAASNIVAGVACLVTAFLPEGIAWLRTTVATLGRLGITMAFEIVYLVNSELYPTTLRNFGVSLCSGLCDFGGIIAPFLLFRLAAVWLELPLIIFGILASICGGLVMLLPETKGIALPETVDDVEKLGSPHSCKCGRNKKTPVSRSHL

[4] = Published plasma concentrations and fetal-to-maternal ratios in (pregnant) women; type: in vivo, human; details: matches Ca x F/M ratio of published values
[5] = 100 µM antidepressant, male placentas
[6] = 1 µM (therapeutic concentration), fetal sex not considered
[7] = 100 µM antidepressant, 1 nM [3H]5-HT, both fetal sexes together, vs control

Effect on placental extraction of 5-HT from fetal circulation (OCT3 [1]; [6]) | Effect on placental extraction of 5-HT from fetal circulation (OCT3 [1]; [7]) | SMILES | Effect on 5-HT extraction from circulation of male fetuses (OCT3 [1]; [5]) | Cmax [2] [nM] | other results
 |  | COc1ccc(C(CN(C)C)C2(O)CCCCC2)cc1 (centres unmarked) [Venlafaxine, venlafaxine hydrochloride] | susceptible to inhibition |  | 
no significant inhibition | significantly decreased | CN(C)CCCC1(c2ccc(F)cc2)OCc2cc(C#N)ccc21 (centres unmarked) [Citalopram, citalopram hydrobromide] |  | 1200 | 
 |  | CCN1/C(=C/c2ccc3ccccc3[n+]2CC)C=Cc2ccccc21.[I-] [decynium-22] |  |  | Effect of model OCT3 inhibitor on 5-HT extraction from fetal circulation (OCT3 [1]; 10 µM decynium-22): sensitive to co-administration of decynium-22
no significant inhibition | significantly decreased | COCCCC/C(=N\OCCN)c1ccc(C(F)(F)F)cc1 [Fluvoxamine, fluvoxamine maleate] | susceptible to inhibition | 1300 | IC50 (OCT3 [3]): 15.2 nM; Ca;fetal (average fetal plasma concentration) [4]: 348 nM
 |  | CNCCC(Oc1ccc(C(F)(F)F)cc1)c1ccccc1 (centres unmarked) [Fluoxetine, fluoxetine hydrochloride] | susceptible to inhibition |  | 
 |  | CN[C@H]1CC[C@@H](c2ccc(Cl)c(Cl)c2)c2ccccc21 [Sertraline, sertraline hydrochloride] | susceptible to inhibition |  | 

SMILES | Effect on placental extraction of 5-HT from fetal circulation (OCT3 [1]; [6]) | Effect on placental extraction of 5-HT from fetal circulation (OCT3 [1]; [7]) | Effect on 5-HT extraction from circulation of male fetuses (OCT3 [1]; [5]) | Cmax [2] [nM] | other results
Fc1ccc([C@@H]2CCNC[C@H]2COc2ccc3c(c2)OCO3)cc1 [Paroxetine, paroxetine hydrochloride] | no significant inhibition | significantly decreased | susceptible to inhibition | 1000 | IC50 (OCT3 [3]): 4.39 nM; Effect on 5-HT extraction from fetal circulation in male placentas (OCT3 [1]; 1 µM (therapeutic concentration), male placentas): potent inhibitor in males; Effect on 5-HT extraction from circulation of female fetuses (OCT3 [1]; 100 µM antidepressant, female placentas): prone to inhibition
